Measured values from patent US20250288587A1, “Methods of Treating Fibrosis” (Athira Pharma, Inc., priority 2022, published 2025).

Key:
CFA-stimulated rats [1] = assay: CFA inflammatory pain model, thermal hyperalgesia (Hargreaves method); type: in vivo; set-up: key to Thermal Hyperalgesia, change in sensitivity compared to CFA alone / Thermal Hyperalgesia, significant reduction in pain behavior vs CFA alone: NS = no statistically significant change in sensitivity compared to CFA alone; + = statistically significant change in sensitivity compared to CFA alone, p < 0.05; details: for study days on which thermal sensitivity was reduced: PO, post-dose testing, any tested dose; for PWL (paw withdrawal latency) vs CFA+vehicle: day 7 at each dose, data not shown
Protocol: (§1) Response to peripheral inflammatory stimulus can be modeled by administering complete Freund's adjuvant (CFA), a suspension of desiccated mycobacterium in paraffin oil and mannide monooleate, by subcutaneous injection into the rat's footpad. The introduction of CFA to peripheral tissues leads to a rapid, sustained, inflammatory reaction in the treated tissue within 24 hours. Subcutaneous administration of CFA in the plantar region of the paw induces inflammatory pain behaviors that persist for at least 8 days. CFA treatment also leads to the accumulation of inflammatory cytokines in paw tissue at the site of injury, which, if unresolved, can lead to formation of fibrotic tissue. The extent of inflammatory response to CFA can be assessed by quantification of inflammatory cytokines in paw skin lysate, and inflammatory pain behaviors by mechanical allodynia (von Frey test) and thermal hyperalgesia (Hargreaves test).
In one study, Compound 2a was tested for its ability to reduce inflammatory pain behaviors in the CFA inflammation model. On study day 0, […] of CFA was administered subcutaneously in the plantar of the right hind paw. Animals were treated daily with Compound 2a in solution via oral gavage (PO) at doses of 1, 0.1, and 0.025 mg/kg. Treatment began before CFA injection on study day −1 and continued through study day 8.
Thermal hyperalgesia was measured using the Hargreaves method. A temperature ramp was applied to the right hind paw and the paw withdrawal latency (PWL) was recorded as a measure of sensitivity to thermal stimulation. […] Statistical analysis was performed using a 1-way ANOVA with Tukey post-test. A p-value below 0.05 was considered statistically significant.
(§2) In another study, Compounds 1a, 5a, and 6a were similarly tested against CFA-induced inflammatory stimulation in the right hind foot for their ability to reduce pain behaviors. This study also included quantification of inflammatory cytokine expression in paw skin lysate. Inflammatory pain stimulation with CFA injection and assessment of mechanical and thermal pain behaviors were performed as described above, with the exception that only post-dose pain behavior testing is reported.
(§3) Intraplantar CFA injection occurred at day 0. Treatment with Compounds 1a, 5a, and 6a occurred at days −2, 1, 3, and 7. At day 8, the rats were terminated and cytokine levels were measured in paw skin and plasma. Tissue from paw bone, joint, and muscle were obtained for H&E staining and analysis. Cytokine levels in test compound-treated animals were compared to CFA-stimulated animals. Analytes included interleukin 4 (IL-4), tumor necrosis factor alpha (TNF-α) and interferon gamma (IFN-γ). Statistical analysis consisted of 1-way ANOVA followed by Dunnett's multiple comparisons post-test. Mechanical allodynia and thermal hyperalgesia were tested 1 hour post-dosing on days 1, 3, and 7. PWT refers to […] paw withdrawal threshold where a higher value corresponds to a higher pain threshold. PWL refers to […] paw withdrawal latency where a higher value corresponds to a higher pain threshold.

CFA-stimulated rats [2] = assay: CFA inflammatory pain model, cytokine expression in paw skin; type: in vivo; set-up: key to IFN-γ expression in paw skin, change compared to CFA alone / IL-4 expression in paw skin, change compared to CFA alone / TNF-α expression in paw skin, change compared to CFA alone: NS = no statistically significant change in expression compared to CFA alone; + = statistically significant change in expression compared to CFA alone, p < 0.05; details: day 8
Protocol: as §1, §2, §3

[3] = test system: THP-1-differentiated macrophages; assay: Pro-inflammatory cytokine expression in LPS-challenged THP-1-differentiated macrophages; type: cell-based, human; set-up: key to IL-6, significant reduction in culture supernatant vs LPS treatment / TNF-α, significant reduction in culture supernatant vs LPS treatment / IL-1β, significant reduction in culture supernatant vs LPS treatment: “NS” indicates a non-significant reduction in the indicated cytokine; “+” indicates a p value <0.05 in Tukey post test; “++” indicates a p value <0.01 in Tukey post test; details: for IL-1β, significant reduction in culture supernatant vs LPS treatment / IL-6, significant reduction in culture supernatant vs LPS treatment / TNF-α, significant reduction in culture supernatant vs LPS treatment: 20 min pre-treatment, 24 hrs LPS; for expression of IL-1β and TNF-α / expression of IL-6: at at least one tested dose
Protocol: Differentiation with PMA causes THP-1 monocyte cells to acquire functional and morphological resemblance to macrophages. LPS interacts with THP-1 differentiated macrophage through the toll-like receptor 4, triggering the inflammatory response and stimulating pro-inflammatory cytokine release and eventually leading to cellular death. Compounds were tested to determine their anti-inflammatory effects on LPS-challenged macrophage cultures. THP-1-differentiated macrophages were treated with test compounds for 20 minutes, followed by 24 hrs of LPS challenge. Culture supernatants were then collected to analyzed for the presence of pro-inflammatory cytokines: […], interleukin 6 (IL-6) and tumor necrosis factor α (TNF-α).
Cytokine quantification in cell culture supernatants was accomplished by HTRF kits to assess levels of IL-1β (Human IL-1β kit, #62HIL1BPEG, Cisbio) and IL-6 (Human IL-6 kit, 62HIL06PET, Cisbio), and by ELISA to determine the levels of TNF-α (Human TNF-α ELISA kit, KHC3011, ThermoFisher).
Data analysis was performed via 1-way ANOVA with Tukey post-test compared to LPS treatment cultures using Prism statistical software (GraphPad). Tabular data indicates significance of reduction in culture supernatants for the indicated analyte at the indicated doses.

Row | SMILES | study days on which thermal sensitivity was reduced (CFA-stimulated rats [1]) | PWL (paw withdrawal latency) vs CFA+vehicle (CFA-stimulated rats [1]) | IL-1β, significant reduction in culture supernatant vs LPS treatment ([3]; 0.1 nM) | IL-6, significant reduction in culture supernatant vs LPS treatment ([3]; 0.1 nM) | TNF-α, significant reduction in culture supernatant vs LPS treatment ([3]; 0.1 nM) | IL-1β, significant reduction in culture supernatant vs LPS treatment ([3]; 10 nM) | IL-6, significant reduction in culture supernatant vs LPS treatment ([3]; 10 nM) | TNF-α, significant reduction in culture supernatant vs LPS treatment ([3]; 10 nM) | IL-1β, significant reduction in culture supernatant vs LPS treatment ([3]; 1000 nM) | IL-6, significant reduction in culture supernatant vs LPS treatment ([3]; 1000 nM) | TNF-α, significant reduction in culture supernatant vs LPS treatment ([3]; 1000 nM) | expression of IL-1β and TNF-α [3] | expression of IL-6 [3] | further results
1 | CCC(C)CN1CC2N(C(=O)c3ccc(C(F)(F)F)cc3)CCC(=O)N2[C@@H](C)C1=O (some centres unmarked) [Compound 1a] | study days 1, 3, and 7 | statistically significant increase | ++ (“++” indicates a p value <0.01 in Tukey post test) | NS | ++ (“++” indicates a p value <0.01 in Tukey post test) | ++ (“++” indicates a p value <0.01 in Tukey post test) | ++ (“++” indicates a p value <0.01 in Tukey post test) | ++ (“++” indicates a p value <0.01 in Tukey post test) | ++ (“++” indicates a p value <0.01 in Tukey post test) | + (“+” indicates a p value <0.05 in Tukey post test) | ++ (“++” indicates a p value <0.01 in Tukey post test) | significantly reduced | significantly reduced | Thermal Hyperalgesia, significant reduction in pain behavior vs CFA alone (CFA-stimulated rats [1]; 8 mg/kg PO, Day 1, 1 h post-dose): NS; Thermal Hyperalgesia, significant reduction in pain behavior vs CFA alone (CFA-stimulated rats [1]; 8 mg/kg PO, Day 3, 1 h post-dose): NS; Thermal Hyperalgesia, significant reduction in pain behavior vs CFA alone (CFA-stimulated rats [1]; 8 mg/kg PO, Day 7, 1 h post-dose): + (+ = statistically significant change in sensitivity compared to CFA alone, p < 0.05); Thermal Hyperalgesia, significant reduction in pain behavior vs CFA alone (CFA-stimulated rats [1]; 16 mg/kg PO, Day 1, 1 h post-dose): + (+ = statistically significant change in sensitivity compared to CFA alone, p < 0.05); Thermal Hyperalgesia, significant reduction in pain behavior vs CFA alone (CFA-stimulated rats [1]; 16 mg/kg PO, Day 3, 1 h post-dose): + (+ = statistically significant change in sensitivity compared to CFA alone, p < 0.05); Thermal Hyperalgesia, significant reduction in pain behavior vs CFA alone (CFA-stimulated rats [1]; 16 mg/kg PO, Day 7, 1 h post-dose): + (+ = statistically significant change in sensitivity compared to CFA alone, p < 0.05); IFN-γ expression in paw skin, change compared to CFA alone (CFA-stimulated rats [2]; 8 mg/kg PO): + (+ = statistically significant change in expression compared to CFA alone, p < 0.05); IL-4 expression in paw skin, change compared to CFA alone (CFA-stimulated rats [2]; 8 mg/kg PO): + (+ = statistically significant change in expression compared to CFA alone, p < 0.05); TNF-α expression in paw skin, change compared to CFA alone (CFA-stimulated rats [2]; 8 mg/kg PO): + (+ = statistically significant change in expression compared to CFA alone, p < 0.05); IFN-γ expression in paw skin, change compared to CFA alone (CFA-stimulated rats [2]; 16 mg/kg PO): NS; IL-4 expression in paw skin, change compared to CFA alone (CFA-stimulated rats [2]; 16 mg/kg PO): + (+ = statistically significant change in expression compared to CFA alone, p < 0.05); TNF-α expression in paw skin, change compared to CFA alone (CFA-stimulated rats [2]; 16 mg/kg PO): + (+ = statistically significant change in expression compared to CFA alone, p < 0.05)
2 | CCC(C)CN1CC2N(Cc3ccc(C(F)(F)F)cc3)CCC(=O)N2[C@@H](C)C1=O (some centres unmarked) [Compound 5a] | study days 1 and 7 | statistically significant increase | ++ (“++” indicates a p value <0.01 in Tukey post test) | NS | NS | ++ (“++” indicates a p value <0.01 in Tukey post test) | + (“+” indicates a p value <0.05 in Tukey post test) | NS | ++ (“++” indicates a p value <0.01 in Tukey post test) | ++ (“++” indicates a p value <0.01 in Tukey post test) | + (“+” indicates a p value <0.05 in Tukey post test) | significantly reduced | significantly reduced | Thermal Hyperalgesia, significant reduction in pain behavior vs CFA alone (CFA-stimulated rats [1]; 10 mg/kg PO, Day 1, 1 h post-dose): + (+ = statistically significant change in sensitivity compared to CFA alone, p < 0.05); Thermal Hyperalgesia, significant reduction in pain behavior vs CFA alone (CFA-stimulated rats [1]; 10 mg/kg PO, Day 3, 1 h post-dose): NS; Thermal Hyperalgesia, significant reduction in pain behavior vs CFA alone (CFA-stimulated rats [1]; 10 mg/kg PO, Day 7, 1 h post-dose): + (+ = statistically significant change in sensitivity compared to CFA alone, p < 0.05); Thermal Hyperalgesia, significant reduction in pain behavior vs CFA alone (CFA-stimulated rats [1]; 20 mg/kg PO, Day 1, 1 h post-dose): NS; Thermal Hyperalgesia, significant reduction in pain behavior vs CFA alone (CFA-stimulated rats [1]; 20 mg/kg PO, Day 3, 1 h post-dose): NS; Thermal Hyperalgesia, significant reduction in pain behavior vs CFA alone (CFA-stimulated rats [1]; 20 mg/kg PO, Day 7, 1 h post-dose): + (+ = statistically significant change in sensitivity compared to CFA alone, p < 0.05); IFN-γ expression in paw skin, change compared to CFA alone (CFA-stimulated rats [2]; 10 mg/kg PO): + (+ = statistically significant change in expression compared to CFA alone, p < 0.05); IL-4 expression in paw skin, change compared to CFA alone (CFA-stimulated rats [2]; 10 mg/kg PO): + (+ = statistically significant change in expression compared to CFA alone, p < 0.05); TNF-α expression in paw skin, change compared to CFA alone (CFA-stimulated rats [2]; 10 mg/kg PO): + (+ = statistically significant change in expression compared to CFA alone, p < 0.05); IFN-γ expression in paw skin, change compared to CFA alone (CFA-stimulated rats [2]; 20 mg/kg PO): + (+ = statistically significant change in expression compared to CFA alone, p < 0.05); IL-4 expression in paw skin, change compared to CFA alone (CFA-stimulated rats [2]; 20 mg/kg PO): + (+ = statistically significant change in expression compared to CFA alone, p < 0.05); TNF-α expression in paw skin, change compared to CFA alone (CFA-stimulated rats [2]; 20 mg/kg PO): + (+ = statistically significant change in expression compared to CFA alone, p < 0.05)
